Article PMC4179164, “Ophiobolin A from Bipolaris oryzae Perturbs Motility and Membrane Integrities of Porcine Sperm and Induces Cell Death on Mammalian Somatic Cell Lines” (Toxins, 2014)
In brackets after ≈: the same amount, converted by molar mass.

How the values were obtained:
L1210 cell line = conditions: cited from earlier work
boar spermatozoa [1] = experiment: Cell membrane permeability assay on static sperm cells (PI and calcein-AM staining); assay type: cell-based; conditions: 24 h, read-out: Toxic endpoint EC50, Permeability to PI on static cells
Procedure: (§1) This phenomenon may indicate that the cell still produce ATP and NADH in the cytoplasm after the OPA treatment, which differs from the effect caused by cation channel forming alamethicin, which depletes the sperm cells from motility, plasma membrane integrity as well as NADH and ATP production at similar concentrations. To confirm the effect of OPA on the plasma membrane permeability, the viability staining with propidium iodide (PI) and calcein-AM was performed after one day incubation at room temperature, (similar conditions as the JC-1 staining) where the EC50 value appeared at 1.6 μg mL^−1, over twice the concentrations that depolarized the mitochondria (Table 1).
Cell membrane permeability assay on motile sperm cells was inspected by staining with PI (Molecular Probes, Eugene, OR, USA) in sperm cells induced to swim by shaking at 37 °C. […] This suspension was incubated for 15 min at 37 °C in dark and measured using a microplate reader (Fluoroskan Ascent, Thermo Scientific, Vantaa, Finland) at excitation and emission wavelengths of 544 nm and 600 nm, respectively. For observing plasma membrane damage by PI staining frozen-thawed semen was used as a positive control (for mortality of 100%) representing the maximal fluorescence emitted by the cells permeable to PI and Dulbeco’s phosphate buffered saline was applied as background control (blank). […]

[2] = tested on: human umbilical vein endothelial cells (HUVECs); conditions: cited from earlier work
[3] = tested on: feline fetus lung (FFL) cells; experiment: Somatic cell toxicity assay (resazurin reduction), FFL; assay type: cell-based; conditions: Felis catus, read-out: IC50, cell proliferation
Procedure: (§2) Viability assays, based on resazurin-resorufin transformation, represent excellent correlation to generally used reference assays, such as formazan- and tritiated thymidine based methods. In our experiments, proliferating murine neuroblastoma (MNA), feline fetus lung (FFL) and porcine kidney (PK-15) cells were treated with OPA. […] These values were remarkably less than the concentrations causing sperm toxicity and motility inhibition.
(§3) Cytotoxicity against somatic cells was tested with feline fetus lung cells (FFL) cultivated as described by Andersson et al. and murine neuroblastoma cells (MNA) as described by Kulonen et al. as well as porcine kidney tubular epithelial cell line (PK-15), cultured as reported earlier. All somatic cell lines were maintained in an atmosphere of 95% air, 5% CO2 and 95% relative humidity at 37 °C on RPMI 1640 (complete medium) in a cell culture cabinet (Heracell 150i; Thermo Fisher Scientific, Vantaa, Finland). The detached cells were seeded onto 96 well microtiter plates and exposed to the purified OPA, the final concentration of which ranged from 48.8 ng mL^−1 to 25 μg mL^−1 containing 10 levels in methanol. […] Then, the plates were analyzed by a microtiter plate reader (Fluoroskan Ascent, Thermo Scientific, Vantaa, Finland) at the excitation and emission wavelengths of 544 nm and 590 nm, respectively. […]

[4] = tested on: porcine kidney (PK-15) cells; experiment: Somatic cell toxicity assay (resazurin reduction), PK-15; assay type: cell-based; conditions: Sus scrofa; PK-15 cells, resazurin; read-out: IC50, cell proliferation
Procedure: as §2, §3

[5] = as above; assay type: cell-based, porcine; conditions: pig, PK-15 cells (porcine kidney tubular epithelial cell line); read-out: Toxic endpoint EC50, Cytotoxicity, PK-15 cells
Procedure: as §2, §3

boar spermatozoa [6] = experiment: Shivering tail beating induction in exposed sperm cells; assay type: cell-based
Procedure: as §1
Microscopic area containing shivering sperm cell is enlarged at top right of the picture.

[7] = Cell membrane permeability assay on motile sperm cells (PI staining); assay type: cell-based, boar; conditions: boar (pig), motile boar spermatozoa (commercial extended boar semen); at 800 ng mL^−1 to 1600 ng mL^−1, 37 °C, 2 h
Procedure: (§4) To test the effect of OPA exposure on sperm cells in physiological conditions (swimming at 37 °C) the plasma membrane disruption on motile sperm cells was measured with the viability PI stain, where the loss of plasma membrane integrity was detected as appearance of red color stained nuclei in the damaged cells. In this assay, sperm cells were exposed to OPA at 37 °C and motility of the exposed sperm cells was induced and maintained for 2 h.
(§5) Cell membrane permeability assay on motile sperm cells was inspected by staining with PI (Molecular Probes, Eugene, OR, USA) in sperm cells induced to swim by shaking at 37 °C. One hundred and fifty μL aliquots of commercial extended boar semen with a density of 27 × 10^6 sperms mL^−1 were pipetted into microtiter plate wells and serially diluted methanolic solution of OPA were added in the concentration range of 200 ng mL^−1 to 4 μg mL^−1 including 6 levels and an additional methanol blank, and pre-incubated for 2 h on orbital shaker (Innova 5000 new Brunswick Scientific, Enfield, CT, USA) (160 rpm) at 37 °C. Four parallel measurements were done for each dilution. One ml PI solution (1 mg mL^−1 in Dulbeco’s phosphate buffered saline) was mixed with 3 mL of […] Dulbeco’s phosphate buffered saline. One hundred and fifty μL of this stain mixture was added to 150 μL of exposed boar semen. This suspension was incubated for 15 min at 37 °C in dark and measured using a microplate reader (Fluoroskan Ascent, Thermo Scientific, Vantaa, Finland) at excitation and emission wavelengths of 544 nm and 600 nm, respectively. For observing plasma membrane damage by PI staining frozen-thawed semen was used as a positive control (for mortality of 100%) representing the maximal fluorescence emitted by the cells permeable to PI and Dulbeco’s phosphate buffered saline was applied as background control (blank). Loss of viability in the sample was calculated as described in Alm et al.. The frozen sample represented 100% loss of viability. The assay was calibrated with triclosan (Sigma Chemical Co., St. Louis, MO, USA), in 5 parallel tests, the EC50 was 2 μg mL^−1 (SD ± 0.6). Cell membrane permeability assay on static sperm cells at room temperature was carried out by viability staining with PI and calcein-AM (Molecular Probes, Eugene, OR, USA) according to Hoornstra et al. in same concentration range and levels described above.

boar spermatozoa [8] = experiment: as above; assay type: cell-based; conditions: for EC50: Spermatozoa
Procedure: as §4, §5

CC(C)=C[C@H]1C[C@H](C)[C@]2(CC[C@]3(C)C[C@H]4[C@H](C(=O)C[C@@]4(C)O)/C(C=O)=C\C[C@H]32)O1 [OPA, ophiobolin A]
IC50, induced cell death (L1210 cell line): 120 µg/mL (≈ 300 µM)
EC50 (boar spermatozoa [1]): 1.6 µg/mL (≈ 3.99 µM)
IC50, reduction in the amount of viable cells [2]: 32 µg/mL
IC50 [3]: 0.0488 µg/mL (≈ 0.122 µM)
IC50 [4]: 0.0488 to 0.0976 µg/mL (≈ 0.122 to 0.244 µM)
EC50 at 3 days [5]: 0.1 µg/mL (≈ 0.25 µM)
EC50 (boar spermatozoa [6]; Spermatozoa, read-out: Toxic endpoint EC50, Shivering tail beating induction): 0.5 µg/mL (≈ 1.25 µM)
Concentration inducing shivering tail beating with depolarisation of mitochondria (boar spermatozoa [6]; exposure at room temperature): < 1 µg/mL
viability at 2 h [7]: 38 to 73%
EC50 (boar spermatozoa [8]; 2 h, read-out: Toxic endpoint EC50, Permeability to PI on motile cells): 1.6 µg/mL (≈ 3.99 µM)
EC50 (boar spermatozoa [8]; 37 °C, motility maintained for 2 h, read-out: EC50, loss of plasma membrane integrity (PI) on motile sperm cells): 0.8 to 1.6 µg/mL (≈ 2 to 3.99 µM)
Concentration lethal to the sperm cells (disrupting the plasma membrane) (boar spermatozoa [8]; motile at 37 °C, after 2 h): below 2000 ng/mL
Concentration inducing lethal damage (loss of plasma membrane integrity) (boar spermatozoa [8]; swimming at 37 °C, short period): < 1 µg/mL
